{"source": "paper PMC12518693", "about": "“Potent Fluorescent Probe for Target‐Engagement Studies of Allosteric Pyruvate Kinase Modulators” (Angewandte Chemie (International Ed. in English), 2025)", "key": {"PKM2": {"target": "PKM2 (Homo sapiens, UniProt P14618)", "sequence (P14618 whole entry)": "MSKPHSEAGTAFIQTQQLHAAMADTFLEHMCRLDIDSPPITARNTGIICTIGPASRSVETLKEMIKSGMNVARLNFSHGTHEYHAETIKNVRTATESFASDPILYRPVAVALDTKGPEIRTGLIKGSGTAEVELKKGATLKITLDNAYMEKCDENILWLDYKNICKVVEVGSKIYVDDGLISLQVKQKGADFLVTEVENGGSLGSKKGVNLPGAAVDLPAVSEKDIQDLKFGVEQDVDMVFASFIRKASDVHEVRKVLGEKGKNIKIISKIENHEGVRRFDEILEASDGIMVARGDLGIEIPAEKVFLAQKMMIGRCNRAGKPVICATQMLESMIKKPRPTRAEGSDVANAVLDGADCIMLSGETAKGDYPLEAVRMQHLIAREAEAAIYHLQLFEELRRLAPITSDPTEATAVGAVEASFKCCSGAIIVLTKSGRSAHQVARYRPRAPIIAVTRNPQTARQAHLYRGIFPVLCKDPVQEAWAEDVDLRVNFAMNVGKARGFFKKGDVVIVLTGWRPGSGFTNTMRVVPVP", "assay": "Surface plasmon resonance, PKM2"}, "PKLNluc": {"target": "PKLNluc (Homo sapiens, UniProt P30613)", "sequence (P30613 1-543 isoform P30613-2)": "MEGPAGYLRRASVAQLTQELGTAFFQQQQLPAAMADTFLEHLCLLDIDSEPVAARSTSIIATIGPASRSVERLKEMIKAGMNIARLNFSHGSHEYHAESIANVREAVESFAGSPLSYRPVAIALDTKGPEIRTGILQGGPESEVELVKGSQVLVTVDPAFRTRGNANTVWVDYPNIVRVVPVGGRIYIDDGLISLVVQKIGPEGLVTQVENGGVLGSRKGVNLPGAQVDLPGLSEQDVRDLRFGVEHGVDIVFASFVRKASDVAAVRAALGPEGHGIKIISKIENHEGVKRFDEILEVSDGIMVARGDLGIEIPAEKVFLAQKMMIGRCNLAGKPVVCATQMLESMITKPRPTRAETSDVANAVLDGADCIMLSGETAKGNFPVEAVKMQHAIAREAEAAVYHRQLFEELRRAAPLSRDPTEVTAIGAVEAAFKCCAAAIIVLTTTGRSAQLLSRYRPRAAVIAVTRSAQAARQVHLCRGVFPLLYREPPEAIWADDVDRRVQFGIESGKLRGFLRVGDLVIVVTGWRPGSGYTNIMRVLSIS", "assay": "Live-cell NanoBRET assay in HEK293 cells", "type": "cell-based", "parameters": "host or cells: HEK293, transient transfection", "description": "To investigate the intracellular interaction of tracer IV with PKLNluc, we prepared a mammalian expression construct, fusing Nluc to the N‐terminus of PKL. […] As a negative control for NanoBRET experiments, a construct expressing Nluc alone (without PKL) was also prepared.\nAdditionally, cell viability assays were conducted on cells transfected with either PKLNluc or Nluc plasmids and incubated with tracer IV (Figure S4b,c).\nHEK293 cells were passed one day before transfection. The concentration of cells was adjusted to 2x10^5 cells/ml in Opti-MEM™ without phenol red (Invitrogen) supplemented with 1% FBS (Hyclone). Cells (4x10^6) were reversed transfected with 1 µg of PKLNluc plasmid or 1 µg Nluc plasmid and 9 µg of carrier DNA (Promega) using 30 µL of Fugene HD transfection reagent (Promega). […] Work solutions (100x) of tracer IV were prepared from DMSO stocks and further diluted to 20x concentrations with Tracer buffer (Promega). Twenty-five hours after transfection, the cells were treated with 5 µL/well of each of 20x concentrations of the tracer (final concentrations in the assay were in the range 0.001-1 µM, depending on the experiment). Thereafter, 10 µL of 10x solutions of competitors (diluted in Opti-MEM™ medium from stocks of 100x prepared in DMSO) were added to some sets of cells, while the other set received only Opti-MEM™ containing 1% DMSO. The cells were incubated for 2 h at 37°C (5% CO2). […] For each sample well, BRET ratios were calculated using the following formula:\nBRET ratio mBU= AcceptorSDonorS-AcceptorNTDonorNT\nWhere AcceptorS is the luminescence intensity of the sample well at 550 nm, DonorS is the luminescence of the sample well at 450 nm, and AcceptorNT and DonorNT are the luminescence of the no-tracer control at 550 nm and 450 nm respectively."}, "PKLNluc and PKLwt": {"test_system": "PKLNluc and PKLwt", "assay": "Native PAGE in-gel fluorescence, PKLNluc and PKLwt", "type": "binding, human", "conditions": "IV 2.5 or 10 µM", "description": "To study the interaction of IV with PKLNluc and its oligomers, native PAGE was performed (Figure 4). Recombinant PKLNluc was incubated for 2 h with IV (0.15–10 µM) or DMSO and loaded onto gels. […] Colloidal blue staining and western blotting with anti‐PKL antibodies confirmed the predominance and identity of the bands (Figure S11a,d). […] PKM2 and PKL exist in equilibrium between oligomeric states, with PKM2 mainly dimeric when unbound.^[ [18] ^] As oligomerization regulates PK function,^[ [11], [54] ^] PKLNluc oligomerization was compared to PKLwt and PKM2 (Figure 4b,c). […] Colloidal blue and anti‐PKM2 blots confirmed PKM2 was mostly monomeric, explaining the lack of binding (Figure S11).\nRecombinant PKLNLuc (4 x 950 ng) was incubated for 1 hour at ambient temperature with different concentrations of compound IV in a total volume of 60 µL Tris-HCl buffer pH 7.4 (50 mM Tris, 100 mM KCl, 10 mM MgCl2, 0.05% Tween 20). PKM2 and PKL recombinants (2 x 950 ng) were also incubated for 1 hour at ambient temperature with different concentrations of the compound IV (0, 2.5 and 10 µM). […]\nA ChemiDoc imager (Bio-Rad, Alexa 488 filter) was used for fluorescence detection of compound IV bound to the proteins. […] The images of the in-gel fluorescence and luminescence detection were superimposed. […]"}, "PKL": {"target": "PKL (Homo sapiens, UniProt P30613)", "sequence (P30613 1-543 isoform P30613-2)": "as above", "assay": "HepG2 PKM2 KO cell lysate PKL activity assay", "conditions": "HepG2 PKM2 KO cells, 48 h, mean ± SE n=3", "quoted_text": "These predominantly express PKL.\nHepG2 PKM2 KO cells (Synthego) were plated in 6 well plates at cell densities of 2 x 10^5 cells/well and incubated for 24 h at 37 °C and 5% CO2. Compounds were added to the cells in different concentrations (0.1, 1, 10 µM) and the cells were further incubated for 48 h. The control cells received DMSO as vehicle.\nCells were washed with PBS, lysed on ice with 200 µL/well PK assay buffer. […] Pyruvate kinase (PK) activity of the cell lysates (10 µg total protein) was analyzed by using the PK assay kit from abcam (ab83432) according to manufacturer´s instructions. The PKL activity in the cell lysates treated with the compounds was expressed as a percentage of the PK activity in the vehicle."}}, "data": [{"compound": "CN(C)c1ccc(S(=O)(=O)c2ccc3c(=O)n(Cc4cc[nH]n4)ncc3c2)c2nonc12", "note": "[Compound IV, 2-((1H-Pyrazol-3-yl)methyl)-6-((7-(dimethylamino)benzo[c][1,2,5]oxadiazol-4-yl)sulfonyl)phthalazin-1(2H)-one]", "values": [{"measurement": "Kd", "setting": "PKM2", "value": "1370 ± 218", "unit": "nM"}, {"measurement": "koff", "setting": "PKM2; read-out: k off SPR (PKM2)", "value": 0.0133, "unit": "s⁻¹"}, {"measurement": "kon", "setting": "PKM2; read-out: k on SPR (PKM2)", "value": 9830, "unit": "M⁻¹ s⁻¹"}, {"measurement": "tracer concentration above which nonspecific binding signals emerged", "setting": "PKLNluc; HEK293, PKLNluc", "value": "exceeding 400 nM"}, {"measurement": "EC50", "setting": "PKLNluc; HEK293 transfected with PKLNluc, 2 h 37 °C, displacement control (20 µM mitapivat) subtracted, read-out: EC50 (cell), tracer titration, specific BRET signal", "value": 18.4, "unit": "nM"}, {"measurement": "in-gel fluorescence labeling of oligomers", "setting": "PKLNluc and PKLwt", "value": "labeling only of the tetramers"}, {"measurement": "in-gel fluorescence labeling of oligomers", "setting": "PKLNluc and PKLwt; listed as LumiPK", "value": "exclusively to the tetrameric form of PKL"}, {"measurement": "PKL activities (% of vehicle) 0.1 µM", "setting": "PKL; 0.1 µM", "value": "108 ± 3 % of vehicle"}, {"measurement": "PKL activities (% of vehicle) 1 µM", "setting": "PKL; 1 µM", "value": "146 ± 4 % of vehicle"}, {"measurement": "PKL activities (% of vehicle) 10 µM", "setting": "PKL; 10 µM", "value": "242 ± 7 % of vehicle"}]}]}
